Source: paper PMC9317316, “Synthesis and Evaluation of Some New 4H-Pyran Derivatives as Antioxidant, Antibacterial and Anti-HCT-116 Cells of CRC, with Molecular Docking, Antiproliferative, Apoptotic and ADME Investigations” (Pharmaceuticals, 2022)
Where “and” joins values, the source holds several entries; their conditions need not be identical. Equal values may be shown once. Read-outs that look alike come from different tables or passages of the source.

What was measured:
[1] = tested on: HCT-116 cells; test: Cell viability (cytotoxicity, LDH release) assay; assay type: cell-based; conditions: Homo sapiens, 24 h; for viability at 100 µg/mL: read-out: percent of viable cells
Procedure: The synthesized compounds were also examined at four concentrations (10, 25, 50 and 100 µg/mL) for their cytotoxic effects on human colorectal cancer HCT-116 cells after their incubation together for 24 h.
Cytotoxic potency was examined for a human colon cancer cell line HCT-116 (American Type Culture Collection; Manassas, VA, USA) using various amounts of each compound (10, 25, 50 and 100 µg). Samples were diluted in Dulbecco’s Modified Eagle’s Medium, consisting of 10% Fetal Bovine Serum, and added to cells grown and cultured for 24 h in a 5% CO2-humidified incubator at 37 °C. Then, the activity of lactate dehydrogenase released from damaged cells was determined in the collected supernatant aliquots using an ELISA endpoint assay (Benchmark Plus, Bio-Rad, Hercules, CA, USA). As positive and negative controls, respectively, 0.1% Triton X-100 in the assay medium and the assay medium only were used. Cell viability, shown as mean values ± SDs (n = 3), was expressed as a relative percentage of the OD values determined at 600 nm in compound-treated cells and the control.

[2] = DPPH radical scavenging assay; conditions: for IC50: 0.03 to 1 mg/mL, 1 h, mean ± SD, triplicate, read-out: IC50 (mM) for DPPH Scavenging Potency
Procedure: The IC50 values for DPPH were calculated from the plot of the scavenging effect against the compound concentration.
The compounds’ capacities to scavenge the stable radical 1,1 diphenyl-2-picrylhydrazyl (DPPH) formed in solution by donation of a hydrogen atom or an electron was investigated according to the method described by Bersuder and coworkers. Due to the fact that the initial blue/purple solution of diphenyl picrylhydrazine changes to yellow in the presence of compounds with a capacity to scavenge DPPH free radicals, this reaction is used as a measure of a compound’s ability to scavenge any free radical. Briefly, a 0.5 mL volume of DPPH ethanolic solution was mixed with an equal volume of each sample concentration (0.03 to 1 mg/mL), shaken strongly and incubated at room temperature for 1 h in darkness. The absorbance of the residual DPPH radicals was measured at 519 nm and compared to that of the control (without the tested compound). DPPH radical scavenging was calculated using the following formula: Scavenging effect (%) = (1 − Acompound/AControl) × 100, where Acompound and Acontrol are the absorbances of the tested compound and of the control, respectively. A plot of the scavenging effect (%) versus the sample concentration was also performed to determine the compound concentration providing 50% inhibition (IC50).

[3] = tested on: S. enteric (ATCC 43972); test: Antibacterial viability (CFU) assay, IC50; assay type: cell-based; conditions: read-out: IC50
Procedure: (§1) The results for the in vitro antibacterial properties of the synthesized compounds against five Gram-positive and four Gram-negative human-pathogenic strains, which were assessed by both the agar diffusion method (based on inhibition zone (IZ)) and the broth dilution bioassay (for the determination of the half-maximal inhibitory concentration (IC50) values), using ampicillin as the reference antibiotic drug, are shown in Table 2 and Table 3.
(§2) The antibacterial activity of all synthesized compounds was evaluated against the Gram-negative strains E. coli (ATCC 25966), K. pneumonia (ATCC 700603), P. aeruginosa (ATCC 27853) and S. enteric (ATCC 43972) and against the Gram-positive strains B. cereus (ATCC 14579), B. subtilis (ATCC 6633), E. faecalis (ATCC 29122), S. aureus (ATCC 25923) and S. epidermidis (ATCC 14990), using the agar diffusion method through measuring the appearance of the inhibition zone on the surface of the top agar, as reported by Berghe and Vlietinck. Ampicillin (10 µg/well) was used as the positive reference standard. Bacterial viability was also investigated by determining the colony-forming ability (CFU) of bacteria incubated at different time intervals without or with appropriate amounts of the compound, which were mixed with 2 ×10^7 CFU/mL in sterile BHI and incubated under shaking for 60 min at 37 °C. Samples were serially diluted into sterile BHI, streaked onto media agar plates and incubated for 24 h at 37 °C. The antibacterial potency of the tested compounds was expressed as the residual number of CFUs with reference to the initial inoculums. The results presented as the half-maximal (50 %) inhibitory concentration (IC50) values are the means of three different measurements.

[4] = tested on: K. pneumonia (ATCC 700603); test: Antibacterial viability (CFU) assay, IC50; assay type: cell-based; conditions: Klebsiella pneumoniae, ATCC700603
Procedure: as §1, §2

[5] = tested on: S. aureus (ATCC 25923); test: Antibacterial viability (CFU) assay, IC50; assay type: cell-based; conditions: Staphylococcus aureus, ATCC25923
Procedure: as §1, §2

[6] = tested on: B. cereus (ATCC 14579); test: Antibacterial viability (CFU) assay, IC50; assay type: cell-based; conditions: Bacillus cereus, ATCC14579
Procedure: as §1, §2

[7] = tested on: P. aeruginosa (ATCC 27853); test: Antibacterial viability (CFU) assay, IC50; assay type: cell-based; conditions: Pseudomonas aeruginosa, ATCC27853
Procedure: as §1, §2

[8] = tested on: S. epidermidis (ATCC 14990); test: Antibacterial viability (CFU) assay, IC50; assay type: cell-based; conditions: Staphylococcus epidermidis, ATCC14990
Procedure: as §1, §2

[9] = tested on: B. subtilis (ATCC 6633); test: Antibacterial viability (CFU) assay, IC50; assay type: cell-based
Procedure: as §1, §2

[10] = tested on: E. coli (ATCC 25966); test: Antibacterial viability (CFU) assay, IC50; assay type: cell-based; conditions: Escherichia coli, ATCC25966; E. coil (ATCC 25966)
Procedure: as §1, §2

[11] = tested on: E. faecalis (ATCC 29122); test: Antibacterial viability (CFU) assay, IC50; assay type: cell-based; conditions: Enterococcus faecalis, ATCC29122
Procedure: as §1, §2

[12] = tested on: S. enteric (ATCC 43972); test: Antibacterial agar diffusion method (inhibition zone); assay type: cell-based
Procedure: as §1, §2

[13] = tested on: K. pneumonia (ATCC 700603); test: as above; assay type: cell-based
Procedure: as §1, §2

[14] = tested on: S. aureus (ATCC 25923); test: as above; assay type: cell-based
Procedure: as §1, §2

[15] = tested on: B. cereus (ATCC 14579); test: as above; assay type: cell-based
Procedure: as §1, §2

[16] = tested on: P. aeruginosa (ATCC 27853); test: as above; assay type: cell-based
Procedure: as §1, §2

[17] = tested on: S. epidermidis (ATCC 14990); test: as above; assay type: cell-based
Procedure: as §1, §2

[18] = tested on: B. subtilis (ATCC 6633); test: as above; assay type: cell-based
Procedure: as §1, §2

[19] = tested on: E. coli (ATCC 25966); test: as above; assay type: cell-based; conditions: E. coil (ATCC 25966)
Procedure: as §1, §2

[20] = tested on: E. faecalis (ATCC 29122); test: as above; assay type: cell-based
Procedure: as §1, §2

[21] = Reducing power assay (FRAC, Fe3+ to Fe2+); conditions: 0-1 mg/mL, absorbance 700 nm
Procedure: Secondly, FRAC was determined over the concentration range of 0.0−1 mg/mL via monitoring Fe^3+−Fe^2+ transformation in the presence of the studied compounds and the reference antioxidant BHT to estimate the values of efficient concentration (EC50), expressed in mM.
The reducing power of the studied compounds was assessed according to Oyaizu’s method. Briefly, different concentrations (ranging from 0 to 1 mg/mL) of each tested compound were first mixed with 1 mL of 0.2 M sodium phosphate buffer (pH 6.6) and 1 mL of 1% potassium ferricyanide (K3Fe(CN)6) and incubated at 50 °C for 20 min. After the addition of 1.25 mL of 20% trichloroacetic acid (TCA), the mixture was centrifuged for 10 min at 3000 rpm and the upper layer solution was then mixed with 0.5 mL of 0.1% fresh ferric chloride and an equal volume of deionized water. Finally, the absorption of the resulting mixture was measured at 700 nm using a UV spectrophotometer against distilled water as the blank, while butylated hydroxytoluene (BHT) was used as a positive control. The sample ferric reducing power capability was indicated by increased absorbance.

[22] = read-out: Mean IC50 (µM) of cytotoxicity
[23] = read-out: Mean IC50 (µg/mL) of cytotoxicity
[24] = Bacillus subtilis, ATCC6633, B. subtilis (ATCC 6633)

| Structure (SMILES) | viability at 100 µg/mL [1] [%] | IC50 [1, 22] [µM] | IC50 [1, 23] [µg/mL] | IC50 [2] [mM] | DPPH Radical Scavenging Effenciency (%) at 1 mg/mL [2] | IC50 [3] [µM] | IC50 [4] [µM] | IC50 [5] [µM] | IC50 [6] [µM] | IC50 [7] [µM] | IC50 [8] [µM] | IC50 [9, 24] [µM] | IC50 [10] [µM] | IC50 [11] [µM] | IZ (mm) [12] [mm] | IZ (mm) [13] [mm] | IZ (mm) [14] | IZ (mm) [15] [mm] | IZ (mm) [16] [mm] | IZ (mm) [17] | also measured |
| --- | --- | --- | --- | --- | --- | --- | --- | --- | --- | --- | --- | --- | --- | --- | --- | --- | --- | --- | --- | --- | --- |
| COC(=O)C1=C(C)OC(N)=C(C#N)C1c1cccc(O)c1Cl (stereo not drawn) [4f, 6-Amino-4-(2-chloro-3-hydroxy-phenyl)-5-cyano-2-methyl-4H-pyran-3-carboxylic acid methyl ester] | 55.5 | 333 ± 13.4 | 107 ± 4.29 | 3.34 ± 0.131 | 43.75 ± 1.77% | 94.2 ± 3.43 | 82 ± 3.43 | 38.4 ± 1.31 | 42.4 ± 2.65 | 105 ± 2.81 | 33 ± 2.65 | 23.6 to 36.8 | 95.7 ± 5.61 | 34.6 ± 0.59 | 6.5 ± 0.7 | 4.5 ± 0.7 | 16.50 ± 0.71 mm | 22.50 ± 0.71 | 6.0 ± 1.4 | 14.50 ± 0.71 mm | IC50 ([9]; B. subtilis (ATCC 6633)): 36.8 ± 0.87 µM; IZ (mm) [18]: 19.50 ± 0.71 mm; IZ (mm) [19]: 7.5 ± 0.71 mm; IZ (mm) [20]: 19.00 ± 1.41 mm; melting point: 238 to 240 °C; EC50 [21]: 398 ± 45 µM |
| CC1=C(C(=O)OCc2ccccc2)C(c2ccccc2Cl)C(C#N)=C(N)O1 (stereo not drawn) [4l, 6-Amino-4-(2-chloro-phenyl)-5-cyano-2-methyl-4H-pyran-3-carboxylic acid benzyl ester] | 11 to 32.5 | 93.4 ± 4.63 | 35.5 ± 1.77 | 0.919 ± 0.026 | 70.20% and 70.20 ± 1.70% | 77.6 ± 1.58 | 77.5 ± 7.08 | 31.1 ± 0.55 | 33.2 ± 2.42 | 72.7 ± 2.63 | 33.4 ± 1.1 | 23.6 to 36.8 | 90.1 ± 2.63 | 37.8 ± 1.5 | 4.0 ± 0.0 | 2.5 ± 0.7 | 9.00 mm and 9.00 ± 1.41 mm | 10.00 ± 1.41 | 4.5 ± 0.7 | 10.50 ± 0.71 mm | IC50 ([9]; B. subtilis (ATCC 6633)): 32.6 ± 1.5 µM; IZ (mm) [18]: 11.50 ± 0.71 mm; IZ (mm) [19]: 3.5 ± 0.7 mm; IZ (mm) [20]: 6.00 ± 1.41 mm; melting point: 162 to 164 °C; EC50 [21]: 801 ± 19 µM |
| CCOC(=O)C1=C(C)OC(N)=C(C#N)C1c1c(OC)cc(OC)cc1OC (stereo not drawn) [4h, 6-Amino-5-cyano-2-methyl-4-(2,4,6-trimethoxy-phenyl)-4H-pyran-3-carboxylic acid ethyl ester] | 11 to 32.5 | 185 ± 11.5 | 69.2 ± 4.29 | 1.31 ± 0.075 | 33.50 ± 2.12% | 112 ± 2.94 | 118 ± 2.67 | 32.7 ± 0.93 | 46.5 ± 1.52 | 89.5 ± 2.94 | 35.8 ± 1.52 | 50.1 ± 2.83 | 114 ± 0.8 | 45.9 ± 0.75 | 5.5 ± 0.7 | 3.5 ± 0.7 | 17.50 mm and 17.50 ± 0.71 mm | 4.50 ± 0.71 | 4.5 ± 0.7 | 16.50 ± 0.71 mm | IZ (mm) [18]: 6.00 ± 1.41 mm; IZ (mm) [19]: 1.5 ± 0.71 mm; IZ (mm) [20]: 8.00 ± 1.41 mm; melting point: 196 to 198 °C; EC50 [21]: 221 ± 11 µM |
| CCOC(=O)C1=C(C)OC(N)=C(C#N)C1c1cccc(-c2ccccc2)c1 (stereo not drawn) [4e, 6-Amino-4-biphenyl-3-yl-5-cyano-2-methyl-4H-pyran-3-carboxylic acid ethyl ester] | 11 to 32.5 | 138 ± 9.78 | 49.7 ± 3.53 | 1.65 ± 0.097 | 39.25 ± 1.06% | 96.1 ± 2.5 | 90.7 ± 2.78 | 34.8 ± 2.16 | 33.6 ± 1.58 | 88 ± 2.78 | 30.8 ± 1.58 | 37.7 ± 1.58 | 103 ± 3.05 | 37.3 ± 2.16 | 3.5 ± 0.7 | 2.5 ± 0.7 | 16.50 ± 2.10 mm | 23.00 ± 1.41 | 4.5 ± 0.7 | 20.50 mm and 20.50 ± 2.12 mm | IZ (mm) [18]: 20.50 ± 0.71 mm; IZ (mm) [19]: 2.7 ± 0.35 mm; IZ (mm) [20]: 15.50 ± 0.71 mm; melting point: 186 to 190 °C; EC50 [21]: 305 ± 39 µM |
